Experimental data: ChEMBL document CHEMBL3872214, “Synthesis and evaluation of in vivo antioxidant, in vitro antibacterial, MRSA and antifungal activity of novel substituted isatin N-(2,3,4,6-tetra-O-acetyl-β-d-glucopyranosyl)thiosemicarbazones” (Eur J Med Chem, 2016)
≈ marks a conversion by molar mass, not a printed value.

Experiments:
Format in all cases: functional
Candida albicans = test: Antifungal activity against Candida albicans ATCC 7754 after 72 hrs by agar dilution method; details: ATCC 7754, 72 h
Rattus norvegicus [1] = test: (§1) Antioxidant activity in CCL4-intoxicated Wistar albino rat assessed as liver cytosolic glutathione peroxidase activity per mg protein at 100 mg/kg, ip administered for 7 consecutive days after DL-alpha-tocopherol acetate treatment followed by CCL4 dosing measured after 24 hrs by H2O2 based spectrophotometric analysis (reference value: 0.28 +/- 0.01 U)
Staphylococcus aureus [2] = test: Antibacterial activity against methicillin-resistant Staphylococcus aureus 198-3 after 18 to 20 hrs by two-fold microbroth dilution method
Staphylococcus aureus [3] = test: Antibacterial activity against methicillin-resistant Staphylococcus aureus 198-2 after 18 to 20 hrs by two-fold microbroth dilution method
Escherichia coli = test: Antibacterial activity against Escherichia coli ATCC 25922 after 18 to 20 hrs by two-fold microbroth dilution method
Staphylococcus aureus [4] = test: Antibacterial activity against Staphylococcus aureus ATCC 11632 after 18 to 20 hrs by two-fold microbroth dilution method
Klebsiella aerogenes = test: Antibacterial activity against Enterobacter aerogenes ATCC 13048 after 18 to 20 hrs by two-fold microbroth dilution method
Rattus norvegicus [5] = test: as §1, with “superoxide dismutase” for “glutathione peroxidase”, “xanthine” for “H2O2”, “assay” for “spectrophotometric analysis”, “5.27” for “0.28”, “0.22” for “0.01”
Staphylococcus aureus [6] = test: Antibacterial activity against methicillin-resistant Staphylococcus aureus 198-1 after 18 to 20 hrs by two-fold microbroth dilution method
Klebsiella pneumoniae = test: Antibacterial activity against Klebsiella pneumoniae ATCC 4352 after 18 to 20 hrs by two-fold microbroth dilution method
[7] = Antifungal activity against Saccharomyces cerevisiae SH20 after 72 hrs by agar dilution method
[8] = Antifungal activity against Fusarium oxysporum M42 after 72 hrs by agar dilution method
Aspergillus niger = test: Antifungal activity against Aspergillus niger 439 after 72 hrs by agar dilution method; details: Aspergillus niger, 439, 72 h
Pseudomonas aeruginosa = test: Antibacterial activity against Pseudomonas aeruginosa […] after 18 to 20 hrs by two-fold microbroth dilution method
Bacillus subtilis = test: Antibacterial activity against Bacillus subtilis ATCC 11774 after 18 to 20 hrs by two-fold microbroth dilution method
Rattus norvegicus [9] = test: as §1, with “catalase” for “glutathione peroxidase”, “assay” for “spectrophotometric analysis”, “220.15” for “0.28”, “11.43” for “0.01”
[10] = tested on: Staphylococcus epidermidis; test: Antibacterial activity against Staphylococcus epidermidis ATCC 12228 after 18 to 20 hrs by two-fold microbroth dilution method

Row | Structure (SMILES) | MIC (Candida albicans) | Activity (Rattus norvegicus [1]) | MIC (Staphylococcus aureus [2]) | MIC (Staphylococcus aureus [3]) | MIC (Escherichia coli) | MIC (Staphylococcus aureus [4]) | MIC (Klebsiella aerogenes) | Activity (Rattus norvegicus [5]) | MIC (Staphylococcus aureus [6]) | MIC (Klebsiella pneumoniae) | MIC [7] | MIC [8] | MIC (Aspergillus niger) | MIC (Pseudomonas aeruginosa) | MIC (Bacillus subtilis) | Activity (Rattus norvegicus [9]) | MIC [10]
1 | CC(=O)OC[C@H]1O[C@@H](NC(=S)N/N=C2/C(=O)N(Cc3ccccc3)c3ccccc32)[C@H](OC(C)=O)[C@@H](OC(C)=O)[C@@H]1OC(C)=O | 400 µM (≈ 256 µg/mL) | 1.69 U | 200 µM (≈ 128 µg/mL) | 200 µM (≈ 128 µg/mL) | 100 µM (≈ 64.1 µg/mL) | 200 µM (≈ 128 µg/mL) | 100 µM (≈ 64.1 µg/mL) | 8.6 U | 200 µM (≈ 128 µg/mL) | 100 µM (≈ 64.1 µg/mL) | 400 µM (≈ 256 µg/mL) | 100 µM (≈ 64.1 µg/mL) | 100 µM (≈ 64.1 µg/mL) | 100 µM (≈ 64.1 µg/mL) | 200 µM (≈ 128 µg/mL) | 250.63 U | 200 µM (≈ 128 µg/mL)
2 | CC(=O)OC[C@H]1O[C@@H](NC(=S)N/N=C2/C(=O)Nc3ccc(F)cc32)[C@H](OC(C)=O)[C@@H](OC(C)=O)[C@@H]1OC(C)=O | 6.25 µM (≈ 3.55 µg/mL) | 0.39 U | 1.56 µM (≈ 0.887 µg/mL) | 3.12 µM (≈ 1.77 µg/mL) | 50 µM (≈ 28.4 µg/mL) | 3.12 µM (≈ 1.77 µg/mL) | 50 µM (≈ 28.4 µg/mL) | 9.84 U | 1.56 µM (≈ 0.887 µg/mL) | 50 µM (≈ 28.4 µg/mL) | 6.25 µM (≈ 3.55 µg/mL) | 12.5 µM (≈ 7.11 µg/mL) | 12.5 µM (≈ 7.11 µg/mL) | 50 µM (≈ 28.4 µg/mL) | 3.12 µM (≈ 1.77 µg/mL) | 379.56 U | 3.12 µM (≈ 1.77 µg/mL)
3 | COc1cccc(OC)c1C(=O)N[C@@H]1C(=O)N2[C@@H]1SC(C)(C)[C@@H]2C(=O)O [METHICILLIN] | – | – | > 200 µM | > 200 µM | – | – | – | – | > 200 µM | – | – | – | – | – | – | – | –
4 | CC(=O)OC[C@H]1O[C@@H](NC(=S)N/N=C2/C(=O)N(CCc3ccccc3)c3ccccc32)[C@H](OC(C)=O)[C@@H](OC(C)=O)[C@@H]1OC(C)=O | 400 µM (≈ 262 µg/mL) | 1.73 U | 200 µM (≈ 131 µg/mL) | 200 µM (≈ 131 µg/mL) | 100 µM (≈ 65.5 µg/mL) | 200 µM (≈ 131 µg/mL) | 100 µM (≈ 65.5 µg/mL) | 8.45 U | 200 µM (≈ 131 µg/mL) | 100 µM (≈ 65.5 µg/mL) | 400 µM (≈ 262 µg/mL) | 200 µM (≈ 131 µg/mL) | 200 µM (≈ 131 µg/mL) | 100 µM (≈ 65.5 µg/mL) | 200 µM (≈ 131 µg/mL) | 260.61 U | 200 µM (≈ 131 µg/mL)
5 | CC(=O)OC[C@H]1O[C@@H](NC(=S)N/N=C2/C(=O)Nc3c2cc(Br)cc3[N+](=O)[O-])[C@H](OC(C)=O)[C@@H](OC(C)=O)[C@@H]1OC(C)=O | 12.5 µM (≈ 8.43 µg/mL) | 0.37 U | 6.25 µM (≈ 4.22 µg/mL) | 6.25 µM (≈ 4.22 µg/mL) | 25 µM (≈ 16.9 µg/mL) | 6.25 µM (≈ 4.22 µg/mL) | 25 µM (≈ 16.9 µg/mL) | 10.76 U | 6.25 µM (≈ 4.22 µg/mL) | 25 µM (≈ 16.9 µg/mL) | 12.5 µM (≈ 8.43 µg/mL) | 6.25 µM (≈ 4.22 µg/mL) | 12.5 µM (≈ 8.43 µg/mL) | 25 µM (≈ 16.9 µg/mL) | 3.12 µM (≈ 2.1 µg/mL) | 381.67 U | 6.25 µM (≈ 4.22 µg/mL)
6 | CC(=O)OC[C@H]1O[C@@H](NC(=S)N/N=C2/C(=O)Nc3ccc(C(C)C)cc32)[C@H](OC(C)=O)[C@@H](OC(C)=O)[C@@H]1OC(C)=O | 100 µM (≈ 59.3 µg/mL) | 1.75 U | 12.5 µM (≈ 7.41 µg/mL) | 12.5 µM (≈ 7.41 µg/mL) | 50 µM (≈ 29.6 µg/mL) | 12.5 µM (≈ 7.41 µg/mL) | 50 µM (≈ 29.6 µg/mL) | 5.82 U | 12.5 µM (≈ 7.41 µg/mL) | 25 µM (≈ 14.8 µg/mL) | 50 µM (≈ 29.6 µg/mL) | 25 µM (≈ 14.8 µg/mL) | 100 µM (≈ 59.3 µg/mL) | 25 µM (≈ 14.8 µg/mL) | 25 µM (≈ 14.8 µg/mL) | 260.61 U | 12.5 µM (≈ 7.41 µg/mL)
7 | CC(=O)OC[C@H]1O[C@@H](NC(=S)N/N=C2/C(=O)Nc3c(C)cccc32)[C@H](OC(C)=O)[C@@H](OC(C)=O)[C@@H]1OC(C)=O | 100 µM (≈ 56.5 µg/mL) | 1.69 U | 12.5 µM (≈ 7.06 µg/mL) | 12.5 µM (≈ 7.06 µg/mL) | 25 µM (≈ 14.1 µg/mL) | 12.5 µM (≈ 7.06 µg/mL) | 25 µM (≈ 14.1 µg/mL) | 4.6 U | 12.5 µM (≈ 7.06 µg/mL) | 25 µM (≈ 14.1 µg/mL) | 25 µM (≈ 14.1 µg/mL) | 25 µM (≈ 14.1 µg/mL) | 100 µM (≈ 56.5 µg/mL) | 25 µM (≈ 14.1 µg/mL) | 25 µM (≈ 14.1 µg/mL) | 250.63 U | 12.5 µM (≈ 7.06 µg/mL)
8 | Clc1ccc(COC(Cn2ccnc2)c2ccc(Cl)cc2Cl)c(Cl)c1 (stereo unspecified) [MICONAZOLE] | 3.12 µM (≈ 1.3 µg/mL) | – | – | – | – | – | – | – | – | – | 3.12 µM (≈ 1.3 µg/mL) | 3.12 µM (≈ 1.3 µg/mL) | 1.56 µM (≈ 0.649 µg/mL) | – | – | – | –
9 | O=C(O)c1cn(C2CC2)c2cc(N3CCNCC3)c(F)cc2c1=O [CIPROFLOXACIN] | – | – | – | – | 1.56 µM (≈ 0.517 µg/mL) | 3.12 µM (≈ 1.03 µg/mL) | 1.56 µM (≈ 0.517 µg/mL) | – | – | 1.56 µM (≈ 0.517 µg/mL) | – | – | – | 1.56 µM (≈ 0.517 µg/mL) | 3.12 µM (≈ 1.03 µg/mL) | – | 3.12 µM (≈ 1.03 µg/mL)
